# Assay: Volatility by vacuum distillation from 100% H2SO4
# Assay type: physicochemical
# Description: This example describes an unsuccessful attempt to vacuum distill the difunctional perfluoroorganic disulfonic acid, HO3S(CF2)4SO3H, illustrating the very low volatility of this diacid compared to monofunctional perfluoroalkanesulfonic acids of even higher molecular weight, like C8F17SO3H. The dipotassium salt, KO3S(CF2)4SO3K (40.0 g) and 100% H2SO4 (241 g) were charged to a vacuum distillation apparatus comprising a 250 mL, three-necked flask equipped with a heating mantle, magnetic stirring bar, an insulated short path distillation head and a 100 mL receiver flask. The pot temperature and head temperature were continuously monitored with J-type thermocouple probes. […] The pressure was reduced to 3.6 Torr and the pot temperature raised to 178° C., but still there was no boiling or distillation. The pressure was reduced further and additional heat was applied to the pot to force distillation. Distillate eventually started to collect at a pot temperature of 196° C. and a pressure of 1.75 Torr. A total of 73.3 g of distillate was collected between 184–186° C. (head temperature) before the distillation was terminated. Since this represents 222% of the theoretical HO3S(CF2)4SO3H yield, it was surmised that the distillate was probably mostly sulfuric acid. The presence of significant H2SO4 in the distillate was confirmed by precipitation of BaSO4 upon treatment of an aqueous solution of the distillate with BaCl2.
# The remaining pot retains were diluted in about 700 mL of water and treated with 350 mL of tributylamine with stirring. A white solid precipitate presumed to be Bu3NH+−O3S(CF2)4SO3^−Bu3NH^+ formed which was isolated by suction filtration washed with three portions of water and air-dried by suction to yield 44.07 g (66% of theory). […] Thus, even though the molecular weight of this monofunctional acid is 38% greater than that of HO3S(CF2)4SO3H, it is much more volatile and distills at much lower temperature than the difunctional acid. […]
SMILES,"volatility: outcome of vacuum distillation (from 100% H2SO4, down to 1.75 Torr, pot temperature up to 196° C.)","head temperature of distillation (8.00 Torr, from 100% H2SO4)","pot temperature of distillation (8.00 Torr, from 100% H2SO4)"
O=S(=O)(O)C(F)(F)C(F)(F)C(F)(F)C(F)(F)S(=O)(=O)O [HO3S(CF2)4SO3H],did not distill,–,–
O=S(=O)(O)C(F)(F)C(F)(F)C(F)(F)C(F)(F)C(F)(F)C(F)(F)C(F)(F)C(F)(F)F [C8F17SO3H],–,135–142 °C,148–157 °C

# Source: patent publication US7122294B2, “Photoacid generators with perfluorinated multifunctional anions” (3M Innovative Properties Company, priority 2003, dated 2006)
